Experimental data published in ChEMBL document CHEMBL5543142, “Discovery of YFJ-36: Design, Synthesis, and Antibacterial Activities of Catechol-Conjugated β-Lactams against Gram-Negative Bacteria” (J Med Chem, 2024).
pIC50: −log10 of the molar value.

What was measured:
Escherichia coli [1] = experiment: Antibacterial activity against ESBL-producing multidrug-resistant Escherichia coli clinical isolate 14-4 assessed as inhibition of bacterial growth incubated for 18 to 20 hrs by two fold serial dilution assay; assay type: functional; conditions: time 18-20 hrs
Escherichia coli [2] = experiment: Antibacterial activity against ESBL-producing multidrug-resistant Escherichia coli clinical isolate 14-2 assessed as inhibition of bacterial growth incubated for 18 to 20 hrs by two fold serial dilution assay; assay type: functional; conditions: time 18-20 hrs
Klebsiella pneumoniae [3] = experiment: Antibacterial activity against KPC-2 producing multidrug-resistant Klebsiella pneumoniae clinical isolate 15-1 assessed as inhibition of bacterial growth incubated for 18 to 20 hrs by two fold serial dilution assay; assay type: functional; conditions: time 18-20 hrs
Acinetobacter baumannii [4] = experiment: Antibacterial activity against OXA-23 producing multidrug-resistant Acinetobacter baumannii clinical isolate 17-5 assessed as inhibition of bacterial growth incubated for 18 to 20 hrs by two fold serial dilution assay; assay type: functional; conditions: time 18-20 hrs
Pseudomonas aeruginosa [5] = experiment: Antibacterial activity against IMP-4 producing multidrug-resistant Pseudomonas aeruginosa clinical isolate 17-1 assessed as inhibition of bacterial growth incubated for 18 to 20 hrs by two fold serial dilution assay; assay type: functional; conditions: time 18-20 hrs
Acinetobacter baumannii [6] = experiment: Antibacterial activity against OXA-23 producing multidrug-resistant Acinetobacter baumannii clinical isolate 17-3 assessed as inhibition of bacterial growth incubated for 18 to 20 hrs by two fold serial dilution assay; assay type: functional; conditions: time 18-20 hrs
Acinetobacter baumannii [7] = experiment: Antibacterial activity against OXA-23 producing multidrug-resistant Acinetobacter baumannii clinical isolate 17-6 assessed as inhibition of bacterial growth incubated for 18 to 20 hrs by two fold serial dilution assay; assay type: functional; conditions: time 18-20 hrs
Klebsiella pneumoniae [8] = experiment: Antibacterial activity against KPC-2 producing multidrug-resistant Klebsiella pneumoniae clinical isolate 15-2 assessed as inhibition of bacterial growth incubated for 18 to 20 hrs by two fold serial dilution assay; assay type: functional; conditions: time 18-20 hrs
Klebsiella pneumoniae [9] = experiment: Antibacterial activity against KPC-2 producing multidrug-resistant Klebsiella pneumoniae clinical isolate 15-5 assessed as inhibition of bacterial growth incubated for 18 to 20 hrs by two fold serial dilution assay; assay type: functional; conditions: time 18-20 hrs
Acinetobacter baumannii [10] = experiment: Antibacterial activity against OXA-23 producing multidrug-resistant Acinetobacter baumannii clinical isolate 17-7 assessed as inhibition of bacterial growth incubated for 18 to 20 hrs by two fold serial dilution assay; assay type: functional; conditions: time 18-20 hrs
Escherichia coli [11] = experiment: Antibacterial activity against ESBL-producing multidrug-resistant Escherichia coli clinical isolate 14-1 assessed as inhibition of bacterial growth incubated for 18 to 20 hrs by two fold serial dilution assay; assay type: functional; conditions: time 18-20 hrs
Acinetobacter baumannii [12] = experiment: Antibacterial activity against OXA-23 producing multidrug-resistant Acinetobacter baumannii clinical isolate 17-2 assessed as inhibition of bacterial growth incubated for 18 to 20 hrs by two fold serial dilution assay; assay type: functional; conditions: time 18-20 hrs
Pseudomonas aeruginosa [13] = experiment: Antibacterial activity against IMP-4 producing multidrug-resistant Pseudomonas aeruginosa clinical isolate 19-17 assessed as inhibition of bacterial growth incubated for 18 to 20 hrs by two fold serial dilution assay; assay type: functional; conditions: time 18-20 hrs
Pseudomonas aeruginosa [14] = experiment: Antibacterial activity against IMP-4 producing multidrug-resistant Pseudomonas aeruginosa clinical isolate 17-13 assessed as inhibition of bacterial growth incubated for 18 to 20 hrs by two fold serial dilution assay; assay type: functional; conditions: time 18-20 hrs
Escherichia coli [15] = experiment: Antibacterial activity against Escherichia coli ATCC35218 assessed as inhibition of bacterial growth incubated for 18 to 20 hrs by two fold serial dilution assay; assay type: functional; conditions: time 18-20 hrs
Pseudomonas aeruginosa [16] = experiment: Antibacterial activity against IMP-4 producing multidrug-resistant Pseudomonas aeruginosa clinical isolate 19-5 assessed as inhibition of bacterial growth incubated for 18 to 20 hrs by two fold serial dilution assay; assay type: functional; conditions: time 18-20 hrs
Pseudomonas aeruginosa [17] = experiment: Antibacterial activity against IMP-4 producing multidrug-resistant Pseudomonas aeruginosa clinical isolate 19-1 assessed as inhibition of bacterial growth incubated for 18 to 20 hrs by two fold serial dilution assay; assay type: functional; conditions: time 18-20 hrs
Klebsiella pneumoniae [18] = experiment: Antibacterial activity against KPC-2 producing multidrug-resistant Klebsiella pneumoniae clinical isolate 15-3 assessed as inhibition of bacterial growth incubated for 18 to 20 hrs by two fold serial dilution assay; assay type: functional; conditions: time 18-20 hrs
Acinetobacter baumannii [19] = experiment: Antibacterial activity against OXA-23 producing multidrug-resistant Acinetobacter baumannii clinical isolate 17-8 assessed as inhibition of bacterial growth incubated for 18 to 20 hrs by two fold serial dilution assay; assay type: functional; conditions: time 18-20 hrs
[20] = Plasma protein binding in mouse incubated for 35 mins by LC-MS/MS analysis; assay type: ADME, cell-free; conditions: read-out: PPB (converted)
Acinetobacter baumannii [21] = experiment: Antibacterial activity against OXA-23 producing multidrug-resistant Acinetobacter baumannii clinical isolate 15-2 assessed as inhibition of bacterial growth incubated for 18 to 20 hrs by two fold serial dilution assay; assay type: functional; conditions: time 18-20 hrs
Acinetobacter baumannii [22] = experiment: Antibacterial activity against OXA-23 producing multidrug-resistant Acinetobacter baumannii clinical isolate 15-5 assessed as inhibition of bacterial growth incubated for 18 to 20 hrs by two fold serial dilution assay; assay type: functional; conditions: time 18-20 hrs
Acinetobacter baumannii [23] = experiment: Antibacterial activity against OXA-23 producing multidrug-resistant Acinetobacter baumannii clinical isolate 15-3 assessed as inhibition of bacterial growth incubated for 18 to 20 hrs by two fold serial dilution assay; assay type: functional; conditions: time 18-20 hrs
Acinetobacter baumannii [24] = experiment: Antibacterial activity against OXA-23 producing multidrug-resistant Acinetobacter baumannii clinical isolate 15-1 assessed as inhibition of bacterial growth incubated for 18 to 20 hrs by two fold serial dilution assay; assay type: functional; conditions: time 18-20 hrs
Acinetobacter baumannii [25] = experiment: Antibacterial activity against OXA-23 producing multidrug-resistant Acinetobacter baumannii clinical isolate 15-4 assessed as inhibition of bacterial growth incubated for 18 to 20 hrs by two fold serial dilution assay; assay type: functional; conditions: time 18-20 hrs
hERG (KCNH2) = hERG (KCNH2) (Homo sapiens, UniProt Q12809); experiment: Inhibition of hERG at 40 uM by whole cell Qpatch assay relative to control; assay type: toxicity
hERG (KCNH2), sequence (Q12809 whole entry): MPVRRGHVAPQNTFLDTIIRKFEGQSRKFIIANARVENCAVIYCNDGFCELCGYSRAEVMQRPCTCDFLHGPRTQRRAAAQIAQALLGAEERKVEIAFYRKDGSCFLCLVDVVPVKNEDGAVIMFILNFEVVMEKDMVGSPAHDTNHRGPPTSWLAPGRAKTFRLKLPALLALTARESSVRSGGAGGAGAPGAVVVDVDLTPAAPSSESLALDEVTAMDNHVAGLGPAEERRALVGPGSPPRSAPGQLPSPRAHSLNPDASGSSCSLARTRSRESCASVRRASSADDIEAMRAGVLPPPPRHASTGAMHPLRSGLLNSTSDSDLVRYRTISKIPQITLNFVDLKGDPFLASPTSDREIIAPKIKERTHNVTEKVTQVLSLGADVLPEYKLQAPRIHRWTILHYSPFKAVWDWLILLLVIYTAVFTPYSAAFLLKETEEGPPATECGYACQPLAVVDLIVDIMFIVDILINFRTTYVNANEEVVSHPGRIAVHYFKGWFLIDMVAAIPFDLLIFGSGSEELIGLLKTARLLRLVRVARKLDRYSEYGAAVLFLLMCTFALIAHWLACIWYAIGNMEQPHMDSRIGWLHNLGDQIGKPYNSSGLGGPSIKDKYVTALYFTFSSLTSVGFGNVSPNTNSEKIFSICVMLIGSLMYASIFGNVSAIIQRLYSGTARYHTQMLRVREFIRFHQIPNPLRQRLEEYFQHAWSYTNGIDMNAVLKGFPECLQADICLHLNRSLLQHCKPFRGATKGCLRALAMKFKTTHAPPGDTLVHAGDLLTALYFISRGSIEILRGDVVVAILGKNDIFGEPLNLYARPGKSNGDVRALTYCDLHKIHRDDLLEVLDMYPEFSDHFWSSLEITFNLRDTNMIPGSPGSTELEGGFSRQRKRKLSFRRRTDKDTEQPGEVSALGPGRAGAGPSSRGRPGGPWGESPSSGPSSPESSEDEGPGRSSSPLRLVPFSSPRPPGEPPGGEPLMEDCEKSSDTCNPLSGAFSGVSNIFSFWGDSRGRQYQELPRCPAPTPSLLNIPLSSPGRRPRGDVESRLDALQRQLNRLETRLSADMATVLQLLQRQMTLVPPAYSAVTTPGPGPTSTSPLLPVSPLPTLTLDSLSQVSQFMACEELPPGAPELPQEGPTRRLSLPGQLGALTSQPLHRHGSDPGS

[26] = biological target: Voltage-gated inwardly rectifying potassium channel KCNH2 (Homo sapiens, UniProt Q12809); experiment: Inhibition of hERG by whole cell Qpatch assay; assay type: toxicity
Voltage-gated inwardly rectifying potassium channel KCNH2, sequence (Q12809 whole entry): as above

Escherichia coli [27] = experiment: Antibacterial activity against Escherichia coli ATCC-35218 assessed as inhibition of bacterial growth incubated for 18 to 20 hrs in presence of iron-depleted CAMHB medium by two fold serial dilution assay; assay type: functional; conditions: time 18-20 hrs
Escherichia coli [28] = experiment: Antibacterial activity against Escherichia coli ATCC-35218 assessed as inhibition of bacterial growth incubated for 18 to 20 hrs in presence of CAMHB medium by two fold serial dilution assay; assay type: functional; conditions: time 18-20 hrs
Escherichia coli [29] = experiment: Antibacterial activity against Escherichia coli NCTC-13353 assessed as inhibition of bacterial growth incubated for 18 to 20 hrs in presence of iron-depleted CAMHB medium by two fold serial dilution assay; assay type: functional; conditions: time 18-20 hrs
Escherichia coli [30] = experiment: Antibacterial activity against Escherichia coli NCTC-13353 assessed as inhibition of bacterial growth incubated for 18 to 20 hrs in presence of CAMHB medium by two fold serial dilution assay; assay type: functional; conditions: time 18-20 hrs
Klebsiella pneumoniae [31] = experiment: Antibacterial activity against Klebsiella pneumoniae ATCC BAA-1898 assessed as inhibition of bacterial growth incubated for 18 to 20 hrs in presence of CAMHB medium by two fold serial dilution assay; assay type: functional; conditions: time 18-20 hrs
Klebsiella pneumoniae [32] = experiment: Antibacterial activity against Klebsiella pneumoniae ATCC BAA-1898 assessed as inhibition of bacterial growth incubated for 18 to 20 hrs in presence of iron-depleted CAMHB medium by two fold serial dilution assay; assay type: functional; conditions: time 18-20 hrs

Row | Compound | MIC (Escherichia coli [1]) | MIC (Escherichia coli [2]) | MIC (Klebsiella pneumoniae [3]) | MIC (Acinetobacter baumannii [4]) | MIC (Pseudomonas aeruginosa [5]) | MIC (Acinetobacter baumannii [6]) | MIC (Acinetobacter baumannii [7]) | MIC (Klebsiella pneumoniae [8]) | MIC (Klebsiella pneumoniae [9]) | MIC (Acinetobacter baumannii [10]) | MIC (Escherichia coli [11]) | MIC (Acinetobacter baumannii [12]) | MIC (Pseudomonas aeruginosa [13]) | MIC (Pseudomonas aeruginosa [14]) | MIC (Escherichia coli [15]) | MIC (Pseudomonas aeruginosa [16]) | MIC (Pseudomonas aeruginosa [17]) | MIC (Klebsiella pneumoniae [18]) | MIC (Acinetobacter baumannii [19]) | further results
1 | C[C@](O/N=C(\C(=O)N[C@@H]1C(=O)N2C(C(=O)O)=C(CSCCNC(=O)c3ccc(O)c(O)c3Cl)CS[C@H]12)c1nc(N)sc1Cl)(C(=O)O)C(F)(F)F.O=C(O)C(F)(F)F | ≤ 0.03 µg/mL | 0.5 µg/mL | 0.25 µg/mL | 0.125 µg/mL | 8 µg/mL | 0.5 µg/mL | 0.5 µg/mL | 0.5 µg/mL | 0.125 µg/mL | 0.5 µg/mL | 0.06 µg/mL | 0.06 µg/mL | 0.06 µg/mL | 0.125 µg/mL | 0.125 µg/mL | 0.25 µg/mL | 1 µg/mL | 0.5 µg/mL | 0.125 µg/mL | –
2 | Nc1nc(/C(=N/OC(C(=O)O)C2CCC(C(F)(F)F)CC2)C(=O)N[C@@H]2C(=O)N3C(C(=O)O)=C(CSCCNC(=O)c4ccc(O)c(O)c4Cl)CS[C@H]23)cs1.O=C(O)C(F)(F)F (stereo partly drawn) | 0.25 µg/mL | 1 µg/mL | 1 µg/mL | – | 1 µg/mL | – | – | 1 µg/mL | 1 µg/mL | – | 0.25 µg/mL | – | 0.5 µg/mL | 0.125 µg/mL | 0.06 µg/mL | – | – | 1 µg/mL | – | fraction unbound at 35 min [20]: 0.04; MIC (Acinetobacter baumannii [21]): 2 µg/mL; MIC (Acinetobacter baumannii [22]): 2 µg/mL; MIC (Acinetobacter baumannii [23]): 4 µg/mL; MIC (Acinetobacter baumannii [24]): 4 µg/mL; MIC (Acinetobacter baumannii [25]): 8 µg/mL
3 | Nc1nc(/C(=N/O[C@H](C(=O)O)C2CCC(F)(F)CC2)C(=O)N[C@@H]2C(=O)N3C(C(=O)O)=C(CSCCNC(=O)c4ccc(O)c(O)c4Cl)CS[C@H]23)cs1.O=C(O)C(F)(F)F | 0.125 µg/mL | 1 µg/mL | 0.25 µg/mL | 0.25 µg/mL | 64 µg/mL | 0.5 µg/mL | 0.5 µg/mL | 1 µg/mL | 1 µg/mL | 0.5 µg/mL | 0.25 µg/mL | 0.5 µg/mL | 0.25 µg/mL | 0.125 µg/mL | 0.125 µg/mL | 2 µg/mL | 8 µg/mL | 0.25 µg/mL | 1 µg/mL | inhibition at 40 µM (hERG (KCNH2)): 23.8%; pIC50 [26]: < 4.40; MIC (Escherichia coli [27]): 0.5 µg/mL; MIC (Escherichia coli [28]): 2 µg/mL; MIC (Escherichia coli [29]): 1 µg/mL; MIC (Escherichia coli [30]): 1 µg/mL; MIC (Klebsiella pneumoniae [31]): 8 µg/mL; MIC (Klebsiella pneumoniae [32]): 2 µg/mL
